# *1 amine or outer side, *2 acyl side, *3 side chain or, on linkers, in order; H or OH if unused. Where a SMILES comes first, the peptide text is derived from it. Bridges are numbered along the chain shown (N, C = ends). [ ]: non-standard residue; d: D form. The star is where a group is joined. ξ: configuration not given here. Phe(4-CH2CH2COOH) = N[C@@H](Cc1ccc(CCC(=O)O)cc1)C(=O)O; Phe(3-CF3) = N[C@@H](Cc1cccc(C(F)(F)F)c1)C(=O)O; Ala(morpholin-4-yl) = N[C@@H](CN1CCOCC1)C(=O)O; Phe(4-COOH) = N[C@@H](Cc1ccc(C(=O)O)cc1)C(=O)O; Bip = N[C@@H](Cc1ccc(-c2ccccc2)cc1)C(=O)O; Phe(3-Me) = Cc1cccc(C[C@H](N)C(=O)O)c1; γGlu = O=C(O)[C@H](CCC(=O)[*:2])N[*:1]; NH(CH2)12COOH = O=C(O)CCCCCCCCCCCCN*; Val(3-OH) = CC(C)(O)[C@H](N)C(=O)O; Pip(4-aza) = O=C(O)[C@@H]1CNCCN1; 4Pal = N[C@@H](Cc1ccncc1)C(=O)O; 2Thi = N[C@@H](Cc1cccs1)C(=O)O; Aad = N[C@@H](CCCC(=O)O)C(=O)O; Cha = N[C@@H](CC1CCCCC1)C(=O)O; Cit = NC(=O)NCCC[C@H](N)C(=O)O; Ile(3ξ) = CCC(C)[C@H](N)C(=O)O; Thr(3ξ) = CC(O)[C@H](N)C(=O)O; 12Ado = NCCCCCCCCCCCC(=O)O; Carboxymethyl = O=C(O)C*; NMeA = CN[C@@H](C)C(=O)O; Orn = NCCC[C@H](N)C(=O)O; Aun = NCCCCCCCCCCC(=O)O; Dab = NCC[C@H](N)C(=O)O; AEEA = NCCOCCOCC(=O)O
# Molecular target: T1, PD-1/PD-L1 interaction (PE-labeled human PD-L1-Ig binding to Jurkat cell line over-expressing human PD-1) (Homo sapiens, UniProt Q15116)
# T1 construct: expressed in transfected cells; host or cells: Jurkat
# Test: Jurkat-PD-1 Cell Binding High-Content Screening Assay (CBA)
# Details: Jurkat-hPD-1 cells, PE-labeled PD-L1-Ig 20 nM final; read-out: Jurkat HPD1 PDL1 IC50
# In short: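 Binding of 20 nM (final) PE-tagged PD-L1-Ig to compound-pretreated Jurkat-hPD-1 cells was measured by high-content imaging after 1 h. Pretreatment ran 2 h at 37 °C in DMEM with 10% fetal calf serum.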
# T1 sequence (Q15116 25-288): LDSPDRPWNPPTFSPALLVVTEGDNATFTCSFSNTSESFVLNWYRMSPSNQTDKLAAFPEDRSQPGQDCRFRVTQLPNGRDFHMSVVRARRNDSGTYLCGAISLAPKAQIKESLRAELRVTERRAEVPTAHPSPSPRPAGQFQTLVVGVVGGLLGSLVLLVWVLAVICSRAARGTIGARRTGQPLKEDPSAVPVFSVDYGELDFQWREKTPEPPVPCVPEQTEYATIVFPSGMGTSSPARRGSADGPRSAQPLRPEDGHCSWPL
row,IC50 [nM],SMILES
1,175,CC(C)C[C@H]1NC(=O)[C@H](C)N(C)C(=O)[C@H](Cc2ccc(OCC(=O)O)cc2)NC(=O)[C@H](Cc2ccc(-c3ccccc3)cc2)NC(=O)[C@H](Cc2ccc(OCC(=O)O)cc2)NC(=O)[C@H](Cc2c[nH]c3ccccc23)NC(=O)[C@H](CC(=O)O)NC(=O)[C@H](Cc2ccncc2)NC(=O)[C@H](Cc2ccc(OCC(=O)O)cc2)NC(=O)CSC[C@@H](C(=O)N[C@@H](CCCN)C(=O)NCCOCCOCC(=O)NCCCCCCCCCCC(=O)O)NC(=O)[C@H]([C@@H](C)O)NC(=O)[C@H](C(C)C)NC(=O)[C@H](CC2CCCCC2)NC(=O)[C@H](CC(N)=O)NC1=O [Example 1379] ({CH2CO}-Y(Carboxymethyl)[4Pal]DWY(Carboxymethyl)[Bip]Y(Carboxymethyl)[NMeA][dL]N[Cha]VTC[Orn][AEEA][Aun]-OH; thioether N-14)
2,22.8,Cc1cccc(C[C@@H]2NC(=O)[C@H](CC(=O)O)NC(=O)[C@H](Cc3ccc(CCC(=O)O)cc3)NC(=O)[C@H](CCCNC(=N)N)NC(=O)CSC[C@@H](C(=O)N[C@@H](CCN)C(=O)NCCCCCCCCCCC(=O)O)NC(=O)[C@@H](CO)NC(=O)[C@H](C(C)C)NC(=O)[C@H](CC3CCCCC3)NC(=O)[C@H](CCN)NC(=O)[C@@H](CC(C)C)NC(=O)[C@H](C)N(C)C(=O)[C@H](Cc3ccc(O)cc3)NC(=O)[C@H](Cc3ccc(-c4ccccc4)cc3)NC(=O)[C@H](C(C)C)NC2=O)c1 [Example 1267] ({CH2CO}-R[Phe(4-CH2CH2COOH)]D[Phe(3-Me)]V[Bip]Y[NMeA][dL][Dab][Cha]V[dS]C[Dab][Aun]-OH; thioether N-14)
3,14,CC(C)C[C@@H]1NC(=O)[C@H](Cc2c[nH]c3ccccc23)NC(=O)[C@H](CC(=O)O)NC(=O)[C@H](Cc2ccc(C(=O)O)cc2)NC(=O)[C@H](Cc2ccc(OCC(=O)O)cc2)NC(=O)CSC[C@@H](C(=O)NCC(=O)N[C@@H](CCC(=O)O)C(=O)NCCCCCCCCCCC(=O)O)NC(=O)[C@H](CO)NC(=O)[C@H](C(C)C)NC(=O)[C@H](CC2CCCCC2)NC(=O)[C@H](CCN)NC(=O)[C@@H](CC(C)C)NC(=O)[C@H](C)N(C)C(=O)[C@H](C(C)C)NC(=O)[C@H](Cc2ccc(-c3ccccc3)cc2)NC1=O [Example 1040] ({CH2CO}-Y(Carboxymethyl)[Phe(4-COOH)]DWL[Bip]V[NMeA][dL][Dab][Cha]VSCGE[Aun]-OH; thioether N-14)
4,29.3,Cc1cccc(C[C@@H]2NC(=O)[C@H](CC(=O)O)NC(=O)[C@H](Cc3ccc(OCC(=O)O)cc3)NC(=O)[C@H](CCCC(=O)O)NC(=O)CSC[C@@H](C(=O)N[C@@H](CCN)C(=O)NCCCCCCCCCCC(=O)O)NC(=O)[C@H](CO)NC(=O)[C@H](C(C)C)NC(=O)[C@H](CC3CCCCC3)NC(=O)[C@H](CCN)NC(=O)[C@@H](CC(C)C)NC(=O)[C@H](C)N(C)C(=O)[C@H](Cc3ccc(O)cc3)NC(=O)[C@H](Cc3ccc(-c4ccccc4)cc3)NC(=O)[C@H](Cc3ccc(OCC(=O)O)cc3)NC2=O)c1 [Example 1280] ({CH2CO}-[Aad]Y(Carboxymethyl)D[Phe(3-Me)]Y(Carboxymethyl)[Bip]Y[NMeA][dL][Dab][Cha]VSC[Dab][Aun]-OH; thioether N-14)
5,27,CC(C)C[C@H]1NC(=O)[C@H](C)N(C)C(=O)[C@H](CCCNC(N)=O)NC(=O)[C@H](Cc2ccc(-c3ccccc3)cc2)NC(=O)[C@H](Cc2ccc(C(=O)O)cc2)NC(=O)[C@H](Cc2cccc(C(F)(F)F)c2)NC(=O)[C@H](CC(=O)O)NC(=O)[C@H](Cc2ccc(OCC(=O)O)cc2)NC(=O)[C@H](CN2CCOCC2)NC(=O)CSC[C@@H](C(=O)N[C@@H](CCN)C(=O)NCCOCCOCC(=O)N[C@@H](CCC(=O)NCCOCCOCC(=O)NCCCCCCCCCCCCC(=O)O)C(=O)O)NC(=O)[C@H](CO)NC(=O)[C@H](C(C)(C)O)NC(=O)[C@H](CC2CCCCC2)NC(=O)[C@H](CCN)NC1=O [Example 1177] ({CH2CO}-[Ala(morpholin-4-yl)]Y(Carboxymethyl)D[Phe(3-CF3)][Phe(4-COOH)][Bip][Cit][NMeA][dL][Dab][Cha][Val(3-OH)]SC[Dab][AEEA][γGlu][AEEA]-{NH(CH2)12COOH}; thioether N-14)
6,29.2,Cc1cccc(C[C@@H]2NC(=O)[C@H](CC(=O)O)NC(=O)[C@H](Cc3ccc(OCC(=O)O)cc3)NC(=O)[C@H](Cc3cccs3)NC(=O)CSC[C@@H](C(=O)N[C@@H](CCN)C(=O)NCCCCCCCCCCC(=O)O)NC(=O)[C@H](CO)NC(=O)[C@H](C(C)(C)O)NC(=O)[C@H](CC3CCCCC3)NC(=O)[C@H](CCN)NC(=O)[C@@H](CC(C)C)NC(=O)[C@H](C)N(C)C(=O)[C@H](Cc3ccc(OCC(=O)O)cc3)NC(=O)[C@H](Cc3ccc(-c4ccccc4)cc3)NC(=O)[C@H](Cc3ccc(OCC(=O)O)cc3)NC2=O)c1 [Example 1285] ({CH2CO}-[2Thi]Y(Carboxymethyl)D[Phe(3-Me)]Y(Carboxymethyl)[Bip]Y(Carboxymethyl)[NMeA][dL][Dab][Cha][Val(3-OH)]SC[Dab][Aun]-OH; thioether N-14)
7,159,CC(=O)NCCCC[C@@H]1NC(=O)[C@H](Cc2ccc(-c3ccccc3)cc2)NC(=O)[C@H](C(C)C)NC(=O)[C@H](Cc2c[nH]c3ccccc23)NC(=O)[C@H](CC(=O)O)NC(=O)[C@H](Cc2ccc(OCC(=O)O)cc2)NC(=O)[C@H](C(C)O)NC(=O)CSC[C@@H](C(=O)N[C@@H](CCCN)C(=O)N[C@@H](CO)C(=O)NCCCCCCCCCCCC(=O)O)NC(=O)[C@H](CCCN)NC(=O)[C@H](C(C)C)NC(=O)[C@H](CC2CCCCC2)NC(=O)[C@H](CCN)NC(=O)[C@@H](CC(C)C)NC(=O)[C@H](C)N(C)C1=O (stereo partly drawn) [Example 2406] ({CH2CO}-[Thr(3ξ)]Y(Carboxymethyl)DWV[Bip]K(Ac)[NMeA][dL][Dab][Cha]V[Orn]C[Orn]S[12Ado]-OH; thioether N-14)
8,3,CCC(C)[C@@H]1NC(=O)[C@H](Cc2ccc(-c3ccccc3)cc2)NC(=O)[C@H](CC(C)C)NC(=O)[C@H](Cc2c[nH]c3ccccc23)NC(=O)[C@H](CC(=O)O)NC(=O)[C@H](Cc2ccc(C(=O)O)cc2)NC(=O)[C@H](Cc2ccc(OCC(=O)O)cc2)NC(=O)CSC[C@@H](C(=O)N[C@@H](CCN)C(=O)NCCOCCOCC(=O)NCCCCCCCCCCC(=O)O)NC(=O)[C@H](CCC(=O)O)NC(=O)[C@H](C(C)(C)O)NC(=O)[C@H](CC2CCCCC2)NC(=O)[C@H](CCN)NC(=O)[C@@H](CC(C)C)NC(=O)[C@H](C)N(C)C1=O (stereo partly drawn) [Example 1414] ({CH2CO}-Y(Carboxymethyl)[Phe(4-COOH)]DWL[Bip][Ile(3ξ)][NMeA][dL][Dab][Cha][Val(3-OH)]EC[Dab][AEEA][Aun]-OH; thioether N-14)
9,121,CC(C)C[C@@H]1NC(=O)[C@H](Cc2c[nH]c3ccccc23)NC(=O)[C@H](CC(=O)O)NC(=O)[C@H](Cc2ccncc2)NC(=O)[C@H](Cc2ccc(OCC(=O)O)cc2)NC(=O)CSC[C@@H](C(=O)N2CCNC[C@H]2C(=O)NCCCCCCCCCCC(=O)O)NC(=O)[C@H](C(C)O)NC(=O)[C@H](C(C)C)NC(=O)[C@H](CC2CCCCC2)NC(=O)[C@H](CCN)NC(=O)[C@@H](CC(C)C)NC(=O)[C@H](C)N(C)C(=O)[C@H](C(C)C)NC(=O)[C@H](Cc2ccc(-c3ccccc3)cc2)NC1=O (stereo partly drawn) [Example 1221] ({CH2CO}-Y(Carboxymethyl)[4Pal]DWL[Bip]V[NMeA][dL][Dab][Cha]V[Thr(3ξ)]C[Pip(4-aza)][Aun]-OH; thioether N-14)

# Same assay, conditions: PE-labeled PD-L1-Ig 20 nM final, Jurkat-hPD-1 cells; read-out: Jurkat HPD1 PDL1 IC50
row,IC50 [nM],SMILES
1,140,Cc1cccc(C[C@@H]2NC(=O)[C@H](CC(=O)O)NC(=O)[C@H](Cc3ccc(OCC(=O)O)cc3)NC(=O)[C@H](C(C)O)NC(=O)CSC[C@@H](C(=O)NCCOCCOCC(=O)NCCCCCCCCCCC(=O)O)NC(=O)[C@H](Cc3cnc[nH]3)NC(=O)[C@H](C(C)(C)O)NC(=O)[C@H](CC3CCCCC3)NC(=O)[C@H](CCN)NC(=O)[C@@H](CC(C)C)NC(=O)[C@H](C)N(C)C(=O)[C@H](Cc3ccc(OCC(=O)O)cc3)NC(=O)[C@H](Cc3ccc(-c4ccccc4)cc3)NC(=O)[C@H](Cc3ccc(C(=O)O)cc3)NC2=O)c1 (stereo partly drawn) [Example 2431] ({CH2CO}-[Thr(3ξ)]Y(Carboxymethyl)D[Phe(3-Me)][Phe(4-COOH)][Bip]Y(Carboxymethyl)[NMeA][dL][Dab][Cha][Val(3-OH)]HC[AEEA][Aun]-OH; thioether N-14)
2,5.5,CC(=O)NCCCC[C@@H]1NC(=O)[C@H](C(C)(C)O)NC(=O)[C@H](CC2CCCCC2)NC(=O)[C@H](CCN)NC(=O)[C@@H](CC(C)C)NC(=O)[C@H](C)N(C)C(=O)[C@H](CCCNC(=N)N)NC(=O)[C@H](Cc2ccc(-c3ccccc3)cc2)NC(=O)[C@H](Cc2ccc(C(=O)O)cc2)NC(=O)[C@H](Cc2cccc(C(F)(F)F)c2)NC(=O)[C@H](CC(=O)O)NC(=O)[C@H](Cc2ccc(OCC(=O)O)cc2)NC(=O)[C@H](Cc2ccc(OCC(=O)O)cc2)NC(=O)CSC[C@@H](C(=O)N[C@@H](CCN)C(=O)NCCCCCCCCCCCCC(=O)O)NC1=O [Example 2600] ({CH2CO}-Y(Carboxymethyl)Y(Carboxymethyl)D[Phe(3-CF3)][Phe(4-COOH)][Bip]R[NMeA][dL][Dab][Cha][Val(3-OH)]K(Ac)C[Dab]-{NH(CH2)12COOH}; thioether N-14)
3,0.7,Cc1cccc(C[C@@H]2NC(=O)[C@H](CC(=O)O)NC(=O)[C@H](Cc3ccc(OCC(=O)O)cc3)NC(=O)[C@H]([C@@H](C)O)NC(=O)CSC[C@@H](C(=O)N[C@@H](CCN)C(=O)NCCOCCOCC(=O)NCCCCCCCCCCCC(=O)O)NC(=O)[C@H](CCC(=O)O)NC(=O)[C@H](C(C)C)NC(=O)[C@H](CC3CCCCC3)NC(=O)[C@H](CCN)NC(=O)[C@@H](CC(C)C)NC(=O)[C@H](C)N(C)C(=O)[C@H](Cc3ccc(OCC(=O)O)cc3)NC(=O)[C@H](Cc3ccc(-c4ccccc4)cc3)NC(=O)[C@H](Cc3ccc(O)cc3)NC2=O)c1 [Example 2666] ({CH2CO}-TY(Carboxymethyl)D[Phe(3-Me)]Y[Bip]Y(Carboxymethyl)[NMeA][dL][Dab][Cha]VEC[Dab][AEEA][12Ado]-OH; thioether N-14)
